From ChEMBL document CHEMBL4130439, “Oral Ingestion and Intraventricular Injection of Curcumin Attenuates the Effort-Related Effects of the VMAT-2 Inhibitor Tetrabenazine: Implications for Motivational Symptoms of Depression” (2017)
Calls of active or inactive are those of the source. No cut-off for these calls is given here.

Legend:
Rattus norvegicus [1] = experiment: Inhibition of effort-related effects of TBZ in Harlan Sprague Dawley rat assessed as increase in TBZ-induced lever presses at 80 to 160 mg/kg, po administered 2 hrs prior to testing followed by TBZ addition at 90 mins prior to testing measured for 30 mins; type: functional, organism-based
Rattus norvegicus [2] = experiment: Inhibition of effort-related effects of TBZ in Harlan Sprague Dawley rat assessed as decrease in TBZ-induced chow intake at 80 to 160 mg/kg, po administered 2 hrs prior to testing followed by TBZ addition at 90 mins prior to testing measured for 30 mins; type: functional, organism-based
Rattus norvegicus [3] = experiment: Inhibition of effort-related effects of TBZ in Harlan Sprague Dawley rat assessed as increase in TBZ-induced lever presses at 160 mg/kg, po administered 3 hrs prior to testing followed by coadministration with TBZ at 90 mins prior to testing measured for 30 mins; type: functional, organism-based
Rattus norvegicus [4] = experiment: Inhibition of effort-related effects of TBZ in Harlan Sprague Dawley rat assessed as decrease in TBZ-induced chow intake at 160 mg/kg, po administered 3 hrs prior to testing followed by coadministration with TBZ at 90 mins prior to testing measured for 30 mins; type: functional, organism-based
Rattus norvegicus [5] = experiment: Inhibition of effort-related effects of TBZ in 90 mins TBZ pretreated Harlan Sprague Dawley rat assessed as increase in TBZ-induced lever presses at 4 to 8 microg, icv administered via chronic indwelling cannulae 20 mins prior to testing measured for 30 mins; type: functional, organism-based
Rattus norvegicus [6] = experiment: Inhibition of effort-related effects of TBZ in 90 mins TBZ pretreated Harlan Sprague Dawley rat assessed as decrease in TBZ-induced chow intake at 4 to 8 microg, icv administered via chronic indwelling cannulae 20 mins prior to testing measured for 30 mins; type: functional, organism-based
Rattus norvegicus [7] = experiment: Ratio of compound effect for TBZ-induced lever presses in icv administered Harlan Sprague Dawley rat to compound effect for TBZ-induced lever presses in orally administered Harlan Sprague Dawley rat; type: functional
Rattus norvegicus [8] = experiment: Ratio of compound effect for TBZ-induced chow intake in icv administered Harlan Sprague Dawley rat to compound effect for TBZ-induced chow intake in orally administered Harlan Sprague Dawley rat; type: functional

COc1cc(/C=C/C(=O)CC(=O)/C=C/c2ccc(O)c(OC)c2)ccc1O [CURCUMIN]
inhibition (Rattus norvegicus [1]): inactive | inhibition (Rattus norvegicus [2]): inactive | inhibition (Rattus norvegicus [3]): Active | inhibition (Rattus norvegicus [4]): Active | inhibition (Rattus norvegicus [5]): Active | inhibition (Rattus norvegicus [6]): Active | Ratio (Rattus norvegicus [7]): >1000 | Ratio (Rattus norvegicus [8]): >1000
